Source: patent publication US11357774B2, “Use of a quinoline sulfonyl compound for treatment of inflammation, inflammatory disorders, autoimmune disorders and malaria” (priority 2019, dated 2022)
Read-outs that look alike come from different tables or passages of the source.

How the values were obtained:
[1] = tested on: THP-1 monocytic cells; assay: Sulforhodamine B (SRB) assay, IC50 on THP-1 cells; format: cell-based, human; conditions: read-out: IC50
Procedure: (§1) The sulforhodamine B (SRB) assay^21 was used to determine the drug concentration that half of the cell growth/viability is inhibited (IC50). Cells were cultured in 96-well plates, with 5,000 cells in 100 μL of culture medium per well. The rest of the protocol was the same as described previously^22,23.
(§2) Data shown in Table 1 are IC50 values of VR23 and other compounds, which were determined using sulforhodamine B (SRB) assays on immunologically relevant cells (THP-1, SW-982 and PBMC). […] Two well-known proteasome inhibitors, BTZ and CFZ, were included for comparison since VR23 is also a proteasome inhibitor, albeit targeting different subunits^2. The widely used anti-inflammatory DEX was included, also for comparison.
(§3) THP-1, SW982 and PBMC cells (5,000 cells/well) were treated with each compound for 48 hours. The IC50, the drug concentration reducing cell growth/viability by 50%, was determined by a dose-response four-parameter curve (generated with GraphPad Prism V. 4.02) formed by 10 two-fold dilutions (n=3).

[2] = tested on: IL-6 and TNF-α secretion in human PBMC; assay: IL-6 and TNF-α in PHA-p-stimulated human PBMC (ELISA); format: cell-based; conditions: PHA-p 10 μg/mL, 6 hours
Procedure: (§4) The values presented are the mean±SEM (n=2).
(§5) The enzyme-linked immunosorbent assay (ELISA) is a quantitative measurement based on sandwich-based enzyme linking, using a protein-specific capture antibody to determine the levels of single or multiple chemokines and cytokines.
Data in FIG. 14 show the levels of IL-6 (upper plot) and TNF-α (lower plot) in human PBMC (1×10^6/mL cells) stimulated with 10 μg/mL phytohemagglutinin-p (PHA-p) (10 μg/mL) for 6 hours, in the absence (control) or presence of varying concentrations of VR23 (0.38, 0.75, 1.5, 3 or 6 μM) or BTZ (6.25, 12.5, 25 or 50 nM). The measurement was carried out with a single-analyte ELISA.

[3] = tested on: PBMC cells; assay: Sulforhodamine B (SRB) assay, IC50 on PBMC; format: cell-based, human; conditions: read-out: IC50
Procedure: as §1, §2, §3

[4] = tested on: IL-1β, TNF-α, IL-6 and IL-8 secretion in THP-1 cells; assay: Cytokine secretion in LPS-stimulated THP-1 cells (ELISA); format: cell-based, human; conditions: THP-1, LPS 5 μg/mL, 6 hours; VR23 0.5-6 μM, BTZ 6 nM, CFZ 1 nM, DEX 2 μM
Procedure: For comparison, BTZ (6 nM), CFZ (1 nM), and DEX (2 μM) were also included. *, **, and *** are p<0.05, p<0.01, and p<0.001, respectively, which denote a significant difference from the LPS-only group. The mean±SEM (n=3) values were determined by a Dunnett's test.
as §5
Data shown in FIG. 11 are the results of experiments carried out to investigate VR23's effect on the levels of inflammatory cytokines. […] For comparison, BTZ (6 nM), CFZ (1 nM) and DEX (2 μM) were also included. The levels of cytokine secreted in cell culture supernatants were measured by a single-analyte ELISA. The IC50 value of VR23 is 3 μM and the concentrations of BTZ, CFZ and DEX used are their respective IC50 values.

[5] = tested on: IL-8 secretion in THP-1 cells; assay: IL-8 secretion in TNF-α-stimulated THP-1 cells (ELISA); format: cell-based, human; conditions: THP-1, TNF-α 10 ng/mL, 6 hours; VR23 at IC50 concentration (between 2 and 4 μM), BTZ 6 nM, CFZ 1 nM
Procedure: For comparison, BTZ (6 nM), CFZ (1 nM), and DEX (2 μM) were also included. *** is p<0.001, which denotes a significant difference from the TNF-α-only group, determined by a Dunnett's test. The values presented are the mean±SEM (n=3).
as §5
The data in FIG. 12 show the levels of IL-8 secreted in the THP-1 culture medium in response to TNF-α alone (10 ng/mL) or in combination with varying concentrations (0.5, 1.0, 2, 4 or 6 μM) of VR23. For comparison, BTZ (6 nM), CFZ (1 nM) and DEX (2 μM) were also included. The measurement time was 6-hour post-stimulation. The measurement was carried out with a single-analyte ELISA.

[6] = tested on: human fibroblast-like synoviocytes from rheumatoid arthritis patients (HFLS-RA); assay: Viability test, HFLS-RA cells; format: cell-based; conditions: 6 hours, IL-1β 10 ng/mL, VR23 1.25-5.0 μM, HCQ 7.5-30 μM
Procedure: The values presented are the mean±SEM (n=3).
The CCK-8 assay was used to count viable cells under the various treatment conditions. Briefly, cells were cultured in 11 columns of a 96-well clustered plate, with 5,000 cells in 100 μL of culture medium per well, excluding one column for a media-only control. The plate was incubated overnight at 37° C. in the humidified conditions, followed by treatment with test compounds diluted in the culture medium (10 μL). Each column was treated with a different condition so that each treatment could have 8 repeats. […] The absorbance was measured using an automatic plate reader (Synergy H4 Hybrid Multi-Mode Microplate Reader, BioTek, Montreal, Canada) at 450 nm wavelength. The cell viability of each treatment sample was determined by using the following equation (%)=(Abstrtmt-Absmedia)/(AbsuT-Absmedia)*100, where Abstrtmt is the absorbance value of cells with the various treatment conditions; Absmedia is the absorbance of the well containing media only; AbsuT is the absorbance of the wells with untreated cells.
This finding was extended to human cells relevant to autoimmune diseases. […] Cytokine levels in cell culture supernatants were determined by a single-analyte ELISA. […] The cytokine secretion was measured in cell culture supernatants by a single-analyte ELISA.

[7] = tested on: SW-982 synovial cell line; assay: Sulforhodamine B (SRB) assay, IC50 on SW-982 cells; format: cell-based; conditions: Homo sapiens; SW982 cells, 48 hours, SRB; read-out: IC50
Procedure: as §1, §2, §3

[8] = tested on: IL-6 secretion in SW-982 synovial cells; assay: IL-6 secretion in IL-1β-stimulated SW-982 synovial cells (ELISA); format: cell-based, human; conditions: SW-982, IL-1β 1 ng/mL, 6 hours; VR23 10 μM, HCQ 60 μM
Procedure: The mean±SEM (n=2) values were determined by a Dunnett's test.
as §5
The measurement was carried out with a single-analyte ELISA. […] While not wishing to be limited by theory, cytokine IL-6 is strongly implicated to the progress of rheumatoid arthritis^29.

[9] = tested on: IL-6 secretion in HFLS-RA cells; assay: IL-6 secretion in stimulated HFLS-RA cells (ELISA); format: cell-based, human; conditions: HFLS-RA, IL-1β 10 ng/mL, 6 hours; VR23 2.5-10 μM, HCQ 15 or 30 μM
Procedure: (§6) The mean±SEM (n=3) values were determined by a Dunnett's test.
as §4, §5
(§7) This finding was extended to human cells relevant to autoimmune diseases. Human fibroblast-like synoviocytes (HFLS) are present in the synovial fluid of joint capsules and produce harmful molecules that contribute to joint destruction and the exacerbation of the disease in rheumatoid arthritis patients. […] The cells were then stimulated with IL-1β (FIG. 16) or LPS (FIG. 17), in the absence (control; IL-1β only) or presence of VR23 or HCQ. HCQ was included for comparison because it is often used to treat rheumatoid arthritis. […] For “VR23 only” samples, 5 μM VR23 was used. Fifty thousand HFLS cells per mL were used for the experiment. Cytokine levels in cell culture supernatants were determined by a single-analyte ELISA. […] Fifty thousand HFLS cells per mL were used for the experiment. The cytokine secretion was measured in cell culture supernatants by a single-analyte ELISA.

[10] = tested on: IL-6 secretion in HFLS-N cells; assay: IL-6 secretion in stimulated HFLS-N cells (ELISA); format: cell-based, human; conditions: IL-1β 10 ng/mL, 6 hours, VR23 2.5-10 μM, HCQ 15 or 30 μM
Procedure: as §6, §4, §5, §7

IC50 ([1]; 48 hours) [nM] | IC50 ([1]; Homo sapiens, THP-1, 48 h) [nM] | IC50 [7] [nM] | Compound | PHA-induced IL-6 ([2]; VR23 1.5 μM, BTZ 6 nM) | PHA-induced TNF-α ([2]; VR23 3.0 μM, BTZ 4× the IC50 dose) | IC50 ([3]; 48 hours) [nM] | IC50 ([3]; Homo sapiens, 48 h) [nM] | levels of inflammatory cytokines IL-1β, TNF-α, IL-6, IL-8 [4] | IL-8 secretion [5] | cell viability [6] | secretion of IL-6 [8] | IL-6 secretion, dose dependence [9] | IL-6 secretion, dose dependence [10]
2070 ± 67 | 2000 | – | C[C@@H]1C[C@H]2[C@@H]3CCC4=CC(=O)C=C[C@]4(C)[C@@]3(F)[C@@H](O)C[C@]2(C)[C@@]1(O)C(=O)CO [DEX, Dexamethasone] | – | – | – | – | – | – | – | – | – | –
5.91 ± 0.34 | 6 | – | CC(C)C[C@H](NC(=O)[C@H](Cc1ccccc1)NC(=O)c1cnccn1)B(O)O [BTZ, bortezomib, reference compound] | reduced the level of IL-6 | largely ineffective in reducing the level of TNF-α | 5.86 ± 0.3 | 6 | do not | substantially reduced IL-8 | – | – | – | –
1.01 ± 0.11 | 1 | – | CC(C)C[C@H](NC(=O)[C@H](CCc1ccccc1)NC(=O)CN1CCOCC1)C(=O)N[C@@H](Cc1ccccc1)C(=O)N[C@@H](CC(C)C)C(=O)[C@@]1(C)CO1 [CFZ, carfilzomib, reference compound] | – | – | – | – | do not | not effective at all | – | – | – | –
– | – | 28200 | CCN(CCO)CCCC(C)Nc1ccnc2cc(Cl)ccc12 (stereo not shown) [HCQ, hydroxychloroquine, reference compound] | – | – | – | – | – | – | none of the conditions examined significantly affected the viability | comparable | decreases in a dose dependent manner | decreases in a dose dependent manner
